Read-outs that look alike come from different tables or passages of the source.
Experiments:
Assay type in all cases: binding
[1] = target: T1, HeLa cell extract proteins (Homo sapiens, UniProt Q16637)
T1 construct: endogenous in cells; host or cells: HeLa cell extract

[2] = target: T2, HeLa cell extract proteins (Homo sapiens, UniProt P07195)
T2 construct: endogenous in cells; host or cells: HeLa cell extract

[3] = target: T3, HeLa cell extract proteins (Homo sapiens, UniProt Q9BT22)
T3 construct: endogenous in cells; host or cells: HeLa cell extract
T3 sequence (Q9BT22 1-464): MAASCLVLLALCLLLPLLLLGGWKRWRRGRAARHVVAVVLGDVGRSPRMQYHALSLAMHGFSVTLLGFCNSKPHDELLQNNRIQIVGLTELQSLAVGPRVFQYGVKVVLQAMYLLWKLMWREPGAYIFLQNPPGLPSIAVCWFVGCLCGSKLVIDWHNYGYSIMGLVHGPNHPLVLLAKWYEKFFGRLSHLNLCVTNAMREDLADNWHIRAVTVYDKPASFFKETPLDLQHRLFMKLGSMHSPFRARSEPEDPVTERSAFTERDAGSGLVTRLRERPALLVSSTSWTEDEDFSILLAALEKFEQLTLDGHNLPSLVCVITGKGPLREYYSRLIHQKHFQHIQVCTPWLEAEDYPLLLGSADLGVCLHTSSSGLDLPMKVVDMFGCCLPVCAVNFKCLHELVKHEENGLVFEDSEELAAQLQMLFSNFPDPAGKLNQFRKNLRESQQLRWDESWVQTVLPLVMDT

[4] = target: T4, HeLa cell extract proteins (Homo sapiens, UniProt P32320)
T4 construct: endogenous in cells; host or cells: HeLa cell extract
T4 sequence (P32320 whole entry): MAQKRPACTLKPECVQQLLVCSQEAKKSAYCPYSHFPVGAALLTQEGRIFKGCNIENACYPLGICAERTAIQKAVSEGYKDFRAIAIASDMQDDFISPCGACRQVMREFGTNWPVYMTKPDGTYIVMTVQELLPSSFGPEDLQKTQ

[5] = target: T5, HeLa cell extract proteins (Homo sapiens, UniProt O60547)
T5 construct: endogenous in cells; host or cells: HeLa cell extract
T5 sequence (O60547 1-372): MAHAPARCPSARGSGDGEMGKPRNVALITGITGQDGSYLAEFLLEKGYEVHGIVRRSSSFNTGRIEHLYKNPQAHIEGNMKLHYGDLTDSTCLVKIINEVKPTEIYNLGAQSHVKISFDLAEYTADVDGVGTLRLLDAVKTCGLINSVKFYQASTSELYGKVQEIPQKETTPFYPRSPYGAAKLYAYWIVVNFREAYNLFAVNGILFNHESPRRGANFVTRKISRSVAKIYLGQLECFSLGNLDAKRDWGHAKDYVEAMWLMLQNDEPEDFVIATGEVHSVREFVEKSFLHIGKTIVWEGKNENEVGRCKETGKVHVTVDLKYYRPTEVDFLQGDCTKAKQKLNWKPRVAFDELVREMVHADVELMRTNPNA

[6] = target: T6, HeLa cell extract proteins (Homo sapiens, UniProt P20073)
T6 construct: endogenous in cells; host or cells: HeLa cell extract
T6 sequence (P20073 1-488): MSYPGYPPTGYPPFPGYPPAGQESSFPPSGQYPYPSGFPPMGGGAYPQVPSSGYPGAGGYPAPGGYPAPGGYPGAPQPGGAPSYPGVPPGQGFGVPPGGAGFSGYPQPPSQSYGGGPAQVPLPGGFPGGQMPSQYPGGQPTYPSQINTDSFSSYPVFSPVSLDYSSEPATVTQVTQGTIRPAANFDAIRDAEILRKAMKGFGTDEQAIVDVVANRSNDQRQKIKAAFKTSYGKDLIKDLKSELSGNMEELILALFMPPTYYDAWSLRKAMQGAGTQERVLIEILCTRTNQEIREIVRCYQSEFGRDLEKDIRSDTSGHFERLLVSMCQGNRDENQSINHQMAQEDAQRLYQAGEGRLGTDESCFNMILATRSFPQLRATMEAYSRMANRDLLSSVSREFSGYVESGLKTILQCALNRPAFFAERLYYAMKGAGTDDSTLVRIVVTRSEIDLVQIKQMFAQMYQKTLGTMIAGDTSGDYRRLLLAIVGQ

[7] = target: T7, HeLa cell extract proteins (Homo sapiens, UniProt Q8NEW0)
T7 construct: endogenous in cells; host or cells: HeLa cell extract
T7 sequence (Q8NEW0 1-376): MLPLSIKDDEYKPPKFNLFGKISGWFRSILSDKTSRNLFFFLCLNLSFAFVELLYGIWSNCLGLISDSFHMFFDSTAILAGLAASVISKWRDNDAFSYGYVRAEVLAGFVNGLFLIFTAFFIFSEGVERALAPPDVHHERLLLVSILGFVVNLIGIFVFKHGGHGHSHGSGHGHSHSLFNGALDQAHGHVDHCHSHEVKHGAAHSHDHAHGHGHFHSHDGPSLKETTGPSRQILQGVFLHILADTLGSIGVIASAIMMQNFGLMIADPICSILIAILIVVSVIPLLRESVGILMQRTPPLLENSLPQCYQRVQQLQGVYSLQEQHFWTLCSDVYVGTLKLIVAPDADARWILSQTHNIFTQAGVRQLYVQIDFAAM

[8] = HeLa, protein SLC30A7 (SOLUTE CARRIER FAMILY 30 MEMBER 7)
[9] = HeLa, protein LDHB (L-LACTATE DEH[…] CHAIN.)

T2 sequence (P07195 whole entry): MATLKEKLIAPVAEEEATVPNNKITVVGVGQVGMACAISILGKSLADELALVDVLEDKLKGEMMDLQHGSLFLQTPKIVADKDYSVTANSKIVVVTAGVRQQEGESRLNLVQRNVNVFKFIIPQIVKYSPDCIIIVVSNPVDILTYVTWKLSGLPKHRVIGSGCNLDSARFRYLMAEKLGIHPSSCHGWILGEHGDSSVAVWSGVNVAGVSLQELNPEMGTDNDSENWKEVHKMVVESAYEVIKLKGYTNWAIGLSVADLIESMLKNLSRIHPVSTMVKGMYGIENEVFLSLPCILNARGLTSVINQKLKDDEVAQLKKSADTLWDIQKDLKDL
T1 sequence (Q16637 whole entry): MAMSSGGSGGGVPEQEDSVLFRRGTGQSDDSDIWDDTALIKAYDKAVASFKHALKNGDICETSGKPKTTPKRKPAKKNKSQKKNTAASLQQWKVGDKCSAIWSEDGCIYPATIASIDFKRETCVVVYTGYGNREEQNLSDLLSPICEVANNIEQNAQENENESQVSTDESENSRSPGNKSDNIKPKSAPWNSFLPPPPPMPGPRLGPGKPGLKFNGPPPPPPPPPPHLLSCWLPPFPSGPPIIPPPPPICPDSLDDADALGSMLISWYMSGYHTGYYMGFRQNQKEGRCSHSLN

| Compound | fold changes relative to vehicle control ([1]; HeLa, protein SMN1) | fold changes relative to vehicle control ([2]; HeLa, captured protein LDHB) | fold changes relative to vehicle control ([3]; HeLa, protein ALG1) | fold changes relative to vehicle control ([4]; HeLa, captured protein CDA) | fold changes relative to vehicle control ([5]; HeLa, captured protein GMDS) | fold changes relative to vehicle control ([6]; HeLa, protein ANXA7) | fold changes relative to vehicle control [7, 8] | fold changes relative to vehicle control ([1]; protein SMN1, HeLa) | fold changes relative to vehicle control ([3]; captured protein ALG1, HeLa) | fold changes relative to vehicle control ([4]; captured protein CDA, HeLa) | fold changes relative to vehicle control ([5]; HeLa, protein GMDS) | fold changes relative to vehicle control ([6]; protein ANXA7, HeLa) | fold changes relative to vehicle control ([7]; HeLa, protein SLC30A7) | other results |
| --- | --- | --- | --- | --- | --- | --- | --- | --- | --- | --- | --- | --- | --- | --- |
| Nc1nc2c(c(=O)[nH]1)N(C=O)C(CNc1ccc(C(=O)N[C@@H](CCC(=O)O)C(=O)O)cc1)CN2 (stereo partly shown) [LEU, leucovorin] | 0.94 | 1.21 | 0.85 | 1.07 | 1 | 0.98 | 1.06 | – | – | – | – | – | – | – |
| Nc1nc2[nH]cc(CCc3ccc(C(=O)N[C@@H](CCC(=O)O)C(=O)O)cc3)c2c(=O)[nH]1 [PTX, pemetrexed] | – | – | – | – | – | – | – | – | – | – | – | – | – | fold changes relative to vehicle control [1]: 0.99; fold changes relative to vehicle control [2]: 1.35; fold changes relative to vehicle control [3]: 0.81; fold changes relative to vehicle control [4]: 1.06; fold changes relative to vehicle control [5]: 1; fold changes relative to vehicle control [6]: 1.02; fold changes relative to vehicle control [7]: 0.97 |
| CCCCCCOc1ccc(Cc2cnc(N)nc2N)cc1 [compound 1] | – | – | – | – | – | – | – | 1 | 0.88 | 0.91 | 1.06 | 1.06 | 1.06 | fold changes relative to vehicle control [2, 9]: 1.75 fold |
| CCCCCCOc1cccc(Cc2cnc(N)nc2N)c1 [compound 2] | – | – | – | – | – | – | – | 1.09 | 0.91 | 0.88 | 1.21 | 1.58 | 1 | fold changes relative to vehicle control ([2]; HeLa, protein LDHB (L-LACTATE DEHYDROGENASE B CHAIN.)): 2.97 fold |
| Nc1nc2cccc(-c3ccccc3)c2n1Cc1ccc(Cl)c(Cl)c1 [compound 3] | – | – | – | – | – | – | – | 0.98 | 1.05 | 0.94 | 1.25 | 0.91 | 1.07 | fold changes relative to vehicle control [2, 9]: 0.94 fold |
| NCCOCCOCC(=O)Nc1nc2ncc(CNc3ccc(C(=O)NC(CCC(=O)O)C(=O)O)cc3)nc2c(=O)[nH]1 (stereo not shown) [compound 6] | 1.16 | 1.42 | 0.93 | 0.89 | 0.98 | 1.13 | 0.94 | – | – | – | – | – | – | – |
| NCCCNc1ccc(C(=O)NC(CCC(=O)O)C(=O)O)cc1 (stereo not shown) [compound 7] | 0.97 | 0.96 | 0.99 | 1.63 | 1.12 | 0.83 | 1 | – | – | – | – | – | – | – |

— PMC6199744, “Development of Chemical Proteomics for the Folateome and Analysis of the Kinetoplastid Folateome” (ACS Infectious Diseases, 2018)
